The target in this test is T1, GPX4 (Homo sapiens, UniProt P36969).
T1 sequence (P36969 1-170 isoform P36969-2): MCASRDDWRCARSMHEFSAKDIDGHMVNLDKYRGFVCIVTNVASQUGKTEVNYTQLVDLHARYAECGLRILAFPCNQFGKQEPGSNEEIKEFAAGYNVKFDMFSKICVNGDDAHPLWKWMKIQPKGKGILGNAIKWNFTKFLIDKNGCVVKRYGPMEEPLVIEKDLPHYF
The experiment in a line: GPX4 activity assay in cell lysates (NADPH-coupled). The format is biochemical. Also on record: endogenous in cells; host or cells: A-673 cell lysate. Put shortly:
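Native GPX4 in lysates of A-673 cells grown with 20 nM sodium selenite; lysate preincubated with compound 45 min at 37 °C in pH 8.0 buffer with 3 mM GSH, 0.5 mM NADPH and glutathione reductase. Reaction started with phosphatidylcholine hydroperoxide; NADPH consumption followed at 340 nm over 25 min; triplicates.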

Where [1] appears, read: generation 1, mean ± s.d., n = 3.

As for `CC(C)Oc1c(Cl)cc(-c2ccc3c(C(=O)NC(C)(C)C(C)(C)OC(=O)CCl)nn(C)c3c2)cc1Cl` [QW-808], the “GPX4% inhibition at 2.5 μM” value is reported as 36.3 ± 16.1%. `COc1ccc(-c2ccc3c(C(=O)N4CCC(OC(=O)CCl)C4(C)C)nn(C)c3c2)cc1Cl` (stereo not shown) [QW-676]: the “GPX4% inhibition at 2.5 μM” value worked out at 22.9 ± 12.1%.

In the case of `CC(C)(COC(=O)CCl)NC(=O)c1cc2ccc(F)cc2[nH]1` [QW-353], the “GPX4% inhibition at 200 (μM)” value under setting [1] is recorded as 69.6 ± 6.2%.

For `Cn1nc(-n2cc(CCOC(=O)CCl)nn2)c2ccc(-c3ccc(N4CCOCC4)c(Cl)c3)cc21` [QW-756], the “GPX4% inhibition at 2.5 μM” value was 41.6 ± 9.0%. Regarding `C=CC(=O)OCC(C)(C)NC(=O)c1cc2c(OC)cccc2[nH]1` [QW-168], under setting [1], the “GPX4% inhibition at 200 (μM)” value is −8.8 ± 10.8%. As to `COc1c(F)cc(-c2ccc3c(C(=O)NC(C)(C)COC(=O)CCl)nn(C)c3c2)cc1Cl` [QW-802], the “GPX4% inhibition at 2.5 μM” value is on record as 80.1 ± 4.7%. Still for that read-out and setting: in the case of `C=C(C)C(=O)Nc1ccc(-c2ccc3c(C(=O)NC(C)(C)COC(=O)CCl)nn(C)c3c2)cc1` [QW-620] it was 63.8 ± 7.8%. As to `COC(=O)C=CC(=O)OCC(C)(C)NC(=O)c1nn(C)c2ccccc12` [QW-412], for the setting “generation 2”, the “GPX4% inhibition at 5 μM” value is on record as −5.7 ± 8.0%. For `Cn1nc(C(=O)NC(C)(C)COC(=O)CCl)c2ccc(-c3cc4ccccc4[nH]3)cc21` [QW-453], the “GPX4% inhibition at 5 μM” value is given as 67.0 ± 4.7%. Take `CC=CC(=O)OCC(C)(C)NC(=O)c1nn(C)c2ccccc12` [QW-411]: for the setting “generation 2”, the “GPX4% inhibition at 5 μM” value was −6.0 ± 3.1%. Turning to `Cn1nc(C(=O)NC(C)(C)COC(=O)CCl)c2ccc(-c3cccc4[nH]ccc34)cc21` [QW-467], the “GPX4% inhibition at 5 μM” value is reported as −10.3 ± 4.3%.

As for `Cn1nc(C(=O)NC(C)(C)COC(=O)CCl)c2ccc(-c3ccc(COC(=O)CCl)cc3)cc21` [QW-513], the “GPX4% inhibition at 5 μM” value is recorded as 50.1 ± 2.4%. As for `C=CC(=O)OCC(C)(C)NC(=O)Cc1cc2ccccc2[nH]1` [QW-267], the “GPX4% inhibition at 200 (μM)” value under setting [1] was found to be 14.7 ± 5.7%. Same read-out and setting: the result for `C=CC(=O)OCC(C)(C)NC(=O)c1ccc[nH]1` [QW-292] reads 7.9 ± 5.3%. Regarding `Cn1nc(-n2cc(C(C)(C)CNC(=O)CCl)nn2)c2ccc(-c3ccc(N4CCOCC4)c(Cl)c3)cc21` [QW-793], the “GPX4% inhibition at 2.5 μM” value was −53.4 ± 17.0%. Take `Cn1nc(C(=O)NCCCCCCOC(=O)CCl)c2ccc(Br)cc21` [QW-520]: for the setting “generation 2”, the “GPX4% inhibition at 5 μM” value is recorded as −9.8 ± 6.7%.

As for `Cn1nc(C(=O)NC(C)(C)COC(=O)CCl)c2ccc(-c3ccc(N4CCOCC4)cc3)cc21` [QW-547], the “GPX4% inhibition at 5 μM” value was 72.0 ± 0.4%.

`Cn1nc(C(=O)NC(C)(C)COC(=O)CCl)c2ccc(-c3ccc(F)nc3)cc21` [QW-444]: the “GPX4% inhibition at 5 μM” value is given as 34.1 ± 0.3%.

Consider `Cc1onc(C(=O)OCC(C)(C)NC(=O)c2nn(C)c3ccccc23)c1[N+](=O)[O-]` [QW-363], for which the “GPX4% inhibition at 200 (μM)” value (generation 2) was −15.4 ± 8.4%. `Cn1nc(C(=O)NCC(C)(C)OC(=O)CCl)c2ccc(-c3ccc(OC(F)(F)F)c(Cl)c3)cc21` [QW-779]: the “GPX4% inhibition at 2.5 μM” value was determined as 39.1 ± 17.7%. `CC=CC(=O)OCC(C)(C)NC(=O)c1nn(C)c2cc(Br)ccc12` [QW-414]: the “GPX4% inhibition at 5 μM” value (generation 2) was −9.1 ± 13.4%.

Turning to `COc1ccccc1-c1ccc2c(C(=O)NC(C)(C)COC(=O)CCl)nn(C)c2c1` [QW-483], the “GPX4% inhibition at 5 μM” value turned out to be 35.8 ± 7.4%. Consider `Cn1nc(C(=O)NC(C)(C)COC(=O)CCl)c2ccc(-c3cccc(C=O)c3)cc21` [QW-599], for which the “GPX4% inhibition at 2.5 μM” value is given as 51.0 ± 4.4%. Take `Cn1nc(C(=O)NC(C)(C)COC(=O)CCl)c2ccc(-c3ccc(C#N)cc3)cc21` [QW-445]: the “GPX4 inhibitory activity, result in words” value is “inactive during GPX4 inhibition” and the “GPX4% inhibition at 5 μM” value was found to be 21.2 ± 5.7%.

These data come from patent publication US20250248979A1, “NOVEL GPX4 INHIBITORS AND USES THEREOF” (THE TRUSTEES OF COLUMBIA UNIVERSITY IN THE CITY OF NEW YORK, priority 2022, published 2025).
